Results from patent publication US20120288885A1, “METHOD AND KIT FOR MEASURING ENZYMATIC ACTIVITIES OF VARIOUS CYTOCHROME P450 MOLECULE SPECIES COMPREHENSIVELY AND WITH HIGH EFFICIENCY” (NATIONAL INSTITUTE OF ADVANCED INDUSTRIAL SCIENCE AND …, priority 2009, published 2012).

Experiments:
human CYP1A1 [1] = target: T1, human CYP1A1 (Homo sapiens, UniProt P04798); assay: Substrate metabolic activity on immobilized P450/oxygen sensor vertically integrated chip (fluorescence response of oxygen sensor); format: in vitro ADME; settings: 0.5 mM chlortoluron
T1 construct: made in house; host or cells: E. coli DH5alpha, membrane fraction
T1 sequence (P04798 1-512): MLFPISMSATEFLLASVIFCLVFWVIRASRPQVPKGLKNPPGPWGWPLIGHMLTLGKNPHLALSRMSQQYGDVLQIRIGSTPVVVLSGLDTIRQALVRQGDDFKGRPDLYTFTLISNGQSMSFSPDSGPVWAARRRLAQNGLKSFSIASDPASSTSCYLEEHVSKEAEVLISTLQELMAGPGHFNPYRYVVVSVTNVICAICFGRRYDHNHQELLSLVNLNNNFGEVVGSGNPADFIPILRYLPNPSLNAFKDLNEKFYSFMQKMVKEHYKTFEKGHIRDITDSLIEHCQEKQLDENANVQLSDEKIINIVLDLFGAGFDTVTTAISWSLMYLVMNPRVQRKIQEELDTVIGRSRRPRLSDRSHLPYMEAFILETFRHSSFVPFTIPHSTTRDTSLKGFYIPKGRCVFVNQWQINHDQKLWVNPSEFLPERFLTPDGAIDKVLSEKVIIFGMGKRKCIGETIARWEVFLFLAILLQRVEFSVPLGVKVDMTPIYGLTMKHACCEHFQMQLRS
Method: A ruthenium complex (Ru(dpp)3Cl2) doped sol solution was prepared as described in Anal. Chem. 75 (2003) 2407-2413 with small modifications as follows. TEOS (0.29 mL) was mixed with 0.612 mL of octyl-triEOS, 0.625 mL of ethanol, and 0.2 mL of 0.1 M HCl by stirring for 1 hour at room temperature. Then, 1.725 mL of ethanol was added to the solution to dilute the sol in order to improve the quality of the oxygen sensing film to be ultimately formed. The solution was further stirred for 1 hour. To prepare an Ru(dpp)3Cl2 doped sol, 100 μL of 2 mM Ru(dpp)3Cl2 in ethanol was mixed with 300 μL of the above-mentioned sol solution. This solution was capped and stirred for 30 min, and 10 μL thereof was pipetted into each well of the microplate. The microplate was stored in the dark at room temperature for gelling and aging for 6 days. In order to increase the hydrophilicity of the surface of the oxygen sensor to improve the attachment with hydrogel, the surface of the microarrays was modified with poly (vinyl acetate) (PVAC).
Agarose was dissolved in deionized water to form a 1.3% (w/w) solution at 60° C. This solution was cooled to about 38° C. […] The microarrays were kept in a refrigerator at 4° C. until use.
TEOS sol was prepared by mixing 0.5 mL of TEOS, 0.25 mL of deionized water, and 12.5 μL of 0.1 M HCl and stirring for 3 hours to form a homogeneous sol. The sol was diluted four times with deionized water. […]
In order to measure the substrate metabolic activities using an immobilized P450/oxygen sensor vertically integrated chip (i.e., a chip comprising an immobilized P450 and an oxygen sensor vertically integrated therein), a study was conducted using immobilized human CYP1A1 as the P450 and chlortoluron (a herbicide) as a substrate. […] After the addition of the substrate solution into the microarrays, the microplate was quickly placed onto the platform of a microplate reader for the fluorescence measurement. Fluorescence intensity was recorded every 5 min for 3 hours.

CYP3A5 = target: T2, CYP3A5 (Homo sapiens, UniProt P20815); format: in vitro ADME
T2 construct: made in house; host or cells: E. coli membrane fraction (inferred from the pCW negative control and the general expression paragraph)
Method: Using a 96-well microplate, the activity of various human P450 molecular species in oxygen sensor/immobilized P450 toward capsaicin was evaluated. The response to a solution with a substrate was compared to the response to a solution without a substrate and the activity of each molecular species was standardized. CYP2C9, CYP1A2, CYP2D6, CYP3A4, CYP2B6, CYP2C19(1A,1B), CYP2E1, CYP1A1, CYP2C8, CYP2W1, CYP4X1, CYP17A1, CYP27A1, CYP51A1, CYP2A6, CYP2A13, CYP1B1, CYP2C18, CYP2J2, CYP3A5, CYP2R1 and CYP2B6 were used as the P450. Furthermore, a membrane fraction (pCW) derived from E. coli was used as a negative control without human P450. […] The longitudinal axis of FIG. 11 indicates the value obtained by dividing the value of the response with a substrate by the value of the response without a substrate (background oxygen consumption) and standardizing the obtained value. As is clear from the figure, various molecular species show activity toward each compound. […] This also indicates the possibility that activities of human P450 toward pharmaceutical compounds and like compounds can be detected in a parallel manner.

human CYP1A1 [2] = target: T1, human CYP1A1; assay: Competitive assay between fluorogenic substrate (7-ER) and non-fluorogenic substrate using caged-G6P; format: biochemical; settings: benzopyrene 0.1 and 1 μM; 7-ER 0.1 to 1.5 μM
Method: A competitive assay between a fluorogenic substrate (7-ER) and a non-fluorogenic substrate (benzopyrene) was conducted using caged-G6P. An aqueous solution obtained by mixing the following components was used as the reaction liquid: 50 μL of 1 M potassium phosphate buffer solution, 30 μL of 5 mM caged-G6P, 2.89 μL of 69.3 U/mL glucose-6-phosphate […], 15 μL of 100 mM magnesium chloride, 1 μL of 5 mM NADP aqueous solution, 10.25 μL of P450 membrane fractions (human CYP1A1), 5 μL of 0.1 M dithiothreitol, and 379.61 μL of ultrapure water. The 7-ER concentration was varied from 0.1 μM to 1.5 μM. The benzopyrene concentrations were 0.1 μM and 1 μM. After UV light irradiation, incubation was performed for 30 minutes to carry out the P450 enzymatic reaction. Thereafter, 25 μL of 30% trichloroacetic acid was added thereto to terminate the enzymatic reaction. By adding 500 μL of chloroform to the reaction liquid and stirring the mixture for 1 minute, the […] (7HR) generated by the reaction was extracted in chloroform. […] After centrifuging for 1 minute, the […] was transferred to a cuvette, and the fluorescence spectra thereof were measured under the following conditions. Excitation wavelength: 366 nm, fluorescence wavelength: 380 to 600 nm. The maximum fluorescence was used to quantify the 7HR. […]

T2 sequence (P20815 whole entry): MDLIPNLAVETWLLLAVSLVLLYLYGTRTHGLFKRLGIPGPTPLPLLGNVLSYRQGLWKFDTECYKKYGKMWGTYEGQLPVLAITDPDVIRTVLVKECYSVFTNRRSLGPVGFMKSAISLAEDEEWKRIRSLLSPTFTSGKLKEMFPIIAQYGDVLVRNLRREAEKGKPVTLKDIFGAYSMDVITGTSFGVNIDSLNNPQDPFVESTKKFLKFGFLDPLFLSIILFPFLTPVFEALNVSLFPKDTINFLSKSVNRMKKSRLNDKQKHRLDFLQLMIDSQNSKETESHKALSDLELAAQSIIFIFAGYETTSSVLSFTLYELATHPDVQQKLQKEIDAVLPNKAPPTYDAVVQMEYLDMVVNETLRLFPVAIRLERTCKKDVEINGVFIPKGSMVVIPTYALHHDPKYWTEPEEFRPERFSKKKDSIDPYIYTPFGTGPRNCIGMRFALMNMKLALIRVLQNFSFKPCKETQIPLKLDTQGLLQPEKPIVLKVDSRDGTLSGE

## Cc1ccc(NC(=O)N(C)C)cc1Cl [chlortoluron]
Human CYP1A1 [1]; P450 encapsulated in Ludox silica gel
  change in fluorescence intensity of the oxygen sensing layer (oxygen consumption due to metabolic reaction): only a limited increase
Human CYP1A1 [1]; P450 encapsulated in TEOS silica gel
  change in fluorescence intensity of the oxygen sensing layer (oxygen consumption due to metabolic reaction): no significant fluorescence increase
Human CYP1A1 [1]; P450 encapsulated in agarose gel, versus NADPH solution without substrate
  change in fluorescence intensity of the oxygen sensing layer (oxygen consumption due to metabolic reaction): significantly increased

## COc1cc(CNC(=O)CCCC/C=C/C(C)C)ccc1O [capsaicin]
CYP3A5
  oxygen sensor response normalized by the response toward a solution without a substrate (peak height, FIG. 11): particularly high

## c1ccc2c(c1)c1cccc3ccc4cccc2c4c31 [benzopyrene]
Human CYP1A1 [2]
  mode of inhibition of 7-ER metabolism (effect on initial reaction velocity): noncompetitive inhibitor
